From patent US20080261918A1, “Silicon Compounds and Their Use” (priority 2003, published 2008)
pIC50: −log10 of the molar value.

Target: T1, human GnRH receptors (Homo sapiens, UniProt P30968)
T1 construct: expressed in transfected cells; host or cells: CHO-K1
T1 sequence (P30968 1-328): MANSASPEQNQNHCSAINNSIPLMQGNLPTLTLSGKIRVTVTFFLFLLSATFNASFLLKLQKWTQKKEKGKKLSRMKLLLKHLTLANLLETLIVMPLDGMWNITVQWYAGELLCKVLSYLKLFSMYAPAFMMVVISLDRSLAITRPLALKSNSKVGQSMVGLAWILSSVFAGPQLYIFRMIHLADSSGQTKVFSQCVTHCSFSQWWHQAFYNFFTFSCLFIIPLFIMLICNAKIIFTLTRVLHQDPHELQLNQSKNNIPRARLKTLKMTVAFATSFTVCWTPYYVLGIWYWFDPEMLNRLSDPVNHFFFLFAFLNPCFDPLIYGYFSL
Experiment: Human GnRH receptor functional assay (intracellular calcium release)
Type: cell-based
Conditions: CHO-K1 cells expressing human GnRH receptors; block of GnRH (EC80)-induced calcium release; 20 min preincubation
Method: Human GnRH Receptor Functional Assay
GnRH-receptor antagonists may be functionally assessed by measurement of change in intracellular calcium levels induced by Gαq mediated increase in IP3 levels. The ability of compounds to block the intracellular release of calcium by GnRH in CHO-K1 cells expressing human GnRH receptors is determined as a measure of the compound's antagonist activity in vitro. Approximately 30,000 cells per assay well (half well 96 well assay plate—Corning) are seeded in normal culture medium. Twenty four hours after seeding the cells are loaded with a calcium sensitive fluorescent dye by replacing the culture medium with assay buffer (1×Hanks buffered saline, 25 mM HEPES, 0.1% w/v fatty acid free BSA, pH7.4) containing 2.5 mM probenecid and 1×Calcium Plus reagent (Molecular) Devices. Cells are incubated at 37° C. for 1 hour to allow for dye uptake. […] After incubation with test compounds the assay plate is placed in a Flexstation II (Molecular Devices) and GnRH is added at the determined EC80 concentration (final). Ligand-dependent changes in intracellular calcium levels are determined by measuring changes in fluorescence of the dye at […] following excitation at 485 nm. Percentage inhibition curves are plotted using 4-parameter fit algorithm and IC50 values calculated for each compound.

**Q.** How did the pIC50 turn out when COc1nc(N2CCC(N(C)C)C2)nc(OC)c1NC(=O)c1ccc(Oc2cc([Si](C)(C)C)ccc2C)o1 (stereo not shown) [Example 2, N-(2-(3-(dimethylamino)pyrrolidin-1-yl)-4,6-dimethoxypyrimidin-5-yl)-5-(2-methyl-5-(trimethylsilyl)phenoxy)furan-2-carboxamide] was run?
**A.** 6.80
